From US11174267B2, “Spiroindolinones and therapeutic uses thereof” (The Regents of the University of California, priority 2015, dated 2021)
Read-outs that look alike come from different tables or passages of the source.

Tests used:
Candida glabrata = assay: EC50 in combination with fluconazole, Candida glabrata; assay type: cell-based; settings: [fluconazole] = 128 μg/mL
Description: (§1) Strains and growth condition. The wild-type Candida albicans strains used were SC5314 and CaSS1. Cdr1 heterozygous were from Merck Sharp & Dohme Corp. Double Barcoded (DBC) library of heterozygous Candida albicans mutants (version 2013A). Cdr1 deficient mutant was obtained by counterselection of the GRACE library strain on 5-Fluoroorotic Acid (5-FOA) containing plate. Clinical isolated resistant C. albicans were from Dr. David Rogers. Cryptococcus neoformans var. grubii H99 (ATCC 208821) and Candida glabrata BG2, a fluconazole-resistant clinical isolate, were used. Yeast strains were cultured at 30° C. in synthetic complete (SC) medium containing 2% glucose.
(§2) C. albicans was grown in SC medium overnight and then diluted to an effective OD600 of 0.0625. Serial ten-fold dilutions of the test compounds (0.15-1500 μM) were prepared in DMSO in 1.5 mL Eppendorf tubes. […] The plates were incubated in a rotary shaker/incubator at 30° C. for 16 h. The contents of each well was resuspended with a micropipettor and a 20 μL aliquot was added to a polystyrene cuvette and diluted with 680 μL of deionized water. The suspension was triturated again immediately before measuring the absorbance at 600 nm (OD600) for cell densities. EC50 values were determined by fitting to the Hill equation using the Excel-based tool ED50PLUS v1.0 (Mario H. Vargas) or using Mathematica. Similar procedures were used for Candida glabrata and Cryptococcus neoformans.
(§3) Because fungal drug-efflux ABC transporters are conserved, Cdr1 inhibitors that target the conserved regions of the pumps are expected to inhibit the drug efflux pumps in all fungi including C. albicans. […] Therefore, those spiroindolinones are candidates for combination antifungal therapy with azoles against invasive infections of not only C. albicans, but also other pathogenic fungi.

[1] = test system: Resistant Candida albicans (clinical isolate-45); assay: EC50 in combination with fluconazole, resistant C. albicans; assay type: cell-based; settings: C. albicans clinical isolate-45; [fluconazole] = 64 μg/mL; read-out: EC50 Resistant Candida albicans
Cryptococcus neoformans = assay: EC50 in combination with fluconazole, Cryptococcus neoformans; assay type: cell-based; settings: [fluconazole] = 4 μg/mL
Description: as §1, §2, §3

[2] = test system: susceptible strain (HLY4123) of C. albicans; assay: Dose-response with fluconazole (0.25 μg/mL) against susceptible strain; assay type: cell-based, Candida albicans
Experimental: as §2

NIH 3T3 cells = assay: Cytotoxicity, LDH assay; assay type: cell-based; settings: concentrations up to 1.5 mM
Experimental: The cytotoxicity of spiroindoline Compounds 1, 8 and 25 were tested against NIH 3T3 cells at concentrations up to 1.5 mM (FIG. 13) using an LDH assay.

[3] = molecular target: C. albicans sterol α-demethylase (a.k.a. Erg11 or CYP51) (Candida albicans, UniProt P10613); assay: Literature: inhibition of sterol α-demethylase by fluconazole; assay type: biochemical; settings: ten times the Ki, >90% inhibition expected
[4] = test system: resistant clinical isolates of C. albicans; assay: Screen of resistant clinical isolates, single dose, broth microdilution (growth OD600); assay type: cell-based, Candida albicans; settings: fluconazole 64 μg/mL alone, 16 h in SC at 30° C.
Description: (Flowers, S. A., et al. Eukaryotic Cell 2012, 11, 1289-1299.) The strains grow at dramatically different rates.

[5] = test system: C. albicans strain HLY4123 and clinical isolates 26 and 45; assay: Checkerboard assay (MIC90, FIC index); assay type: cell-based, Candida albicans; settings: Candida albicans
Experimental: Checkerboard assays were carried out using four 24-well plates. The results on each plate were normalized by duplication of one row and one column with a row and column on another plate. C. albicans was grown in SC medium overnight and then diluted to an effective OD600 of 0.0625. Serial ten-fold dilutions of the test compounds (150 mM) were prepared in DMSO in 1.5 mL Eppendorf tubes. […] Concentrations of compound in rows 1-11 varied from 300 μM to 0.0003 nM; the last row 12 contained no compound. […] The plates were incubated in a rotary shaker/incubator at 30° C. for 16 h. The contents of each well was resuspended with a micropipettor and a 20 μL aliquot was added to a polystyrene cuvette and diluted with 680 μL of deionized water. The suspension was triturated again immediately before measuring the absorbance at 600 nm. The MIC90 values were determined as the lowest concentrations of the drugs (alone or in combination) that inhibited fungal growth by 90% compared with that of the drug-free wells.
In all of the strains tested, the FIC index was below 0.5, fitting the classical definition of synergy.

[6] = test system: resistant clinical isolates of C. albicans; design: unit not given beside the values; settings: cited from earlier work
[7] = in the presence of fluconazole; cited from earlier work
[8] = Candida albicans, with fluconazole 0.25 μg/mL, strain HLY4123
[9] = with fluconazole 0.25 μg/mL, strain HLY4123

Sequence of C. albicans sterol α-demethylase (a.k.a. Erg11 or CYP51) (P10613 whole entry): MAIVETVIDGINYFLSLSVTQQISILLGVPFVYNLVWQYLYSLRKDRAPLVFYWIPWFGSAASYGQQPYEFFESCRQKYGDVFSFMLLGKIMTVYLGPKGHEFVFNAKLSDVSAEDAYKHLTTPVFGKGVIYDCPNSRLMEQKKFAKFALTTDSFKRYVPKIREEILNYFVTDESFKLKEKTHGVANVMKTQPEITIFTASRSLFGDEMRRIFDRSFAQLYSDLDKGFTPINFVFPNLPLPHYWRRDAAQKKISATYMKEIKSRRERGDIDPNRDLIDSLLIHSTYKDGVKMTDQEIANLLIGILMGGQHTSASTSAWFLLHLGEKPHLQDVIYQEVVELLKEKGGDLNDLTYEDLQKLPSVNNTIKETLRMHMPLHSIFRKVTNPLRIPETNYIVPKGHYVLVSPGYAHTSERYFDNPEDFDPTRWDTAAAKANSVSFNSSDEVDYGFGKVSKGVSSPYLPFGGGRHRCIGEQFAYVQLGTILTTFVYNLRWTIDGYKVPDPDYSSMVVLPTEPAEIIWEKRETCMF

Structure (SMILES): Cc1c(Cl)ccc2c1NC(=O)[C@]21N[C@H](Cc2ccccc2)[C@@H]2C(=O)N(c3ccccc3)C(=O)[C@@H]21 (racemic) [Compound 8]
- EC50 (Candida glabrata): 1720 nM
- EC50 [1]: 490 nM
- EC50 (Cryptococcus neoformans): 11300 nM
- EC50 [2, 8]: 1 nM
- cytotoxicity (NIH 3T3 cells): weak to negligible cytotoxicity

Structure (SMILES): Cc1c(Cl)ccc2c1NC(=O)[C@@]21[C@H]2C(=O)N(c3ccccc3)C(=O)[C@H]2[C@H]2CN(C(=O)OC(C)(C)C)CCN21 (racemic) [Compound 9, (±)-tert-Butyl (3R,3a′R,3b'S,9a'S)-6-chloro-7-methyl-1′,2,3′-trioxo-2′-phenyl-2′,3′,3a′,3b′,4′,6′,7′,9a′-octahydrospiro[indoline-3,9′-pyrrolo[3′,4′:3,4]pyrrolo[1,2-a]pyrazine]-5′(1′H)-carboxylate]
- EC50 [2, 8]: 5.6 nM
- times more potent than compound 33 ([2]; ratio of EC50s, diastereomers): over 35
- EC50 [2, 9]: 6 to 8 nM

Structure (SMILES): Cc1c(Cl)ccc2c1NC(=O)[C@@]21[C@H]2C(=O)N(c3ccccc3)C(=O)[C@H]2[C@H]2CNCCN21 [Compound 20]
- activity (in words) [2, 9]: low activity

Structure (SMILES): OC(Cn1cncn1)(Cn1cncn1)c1ccc(F)cc1F [fluconazole, reference compound]
- theoretical limit for fluconazole potency [3]: around 0.3 μM
- Growth (OD600) +Fluc ([4]; clinical isolate 15): 5.58
- Growth (OD600) +Fluc ([4]; clinical isolate 16): 0.64
- Growth (OD600) +Fluc ([4]; clinical isolate 17): 3.96
- Growth (OD600) +Fluc ([4]; clinical isolate 21): 6.46
- Growth (OD600) +Fluc ([4]; clinical isolate 22): 3.27
- Growth (OD600) +Fluc ([4]; clinical isolate 23): 6.77
- Growth (OD600) +Fluc ([4]; clinical isolate 25): 2.90
- Growth (OD600) +Fluc ([4]; clinical isolate 26): 6.44
- Growth (OD600) +Fluc ([4]; clinical isolate 30): 9.40
- Growth (OD600) +Fluc ([4]; clinical isolate 33): 7.38
- Growth (OD600) +Fluc ([4]; clinical isolate 36): 5.08
- Growth (OD600) +Fluc ([4]; clinical isolate 41): 9.47
- Growth (OD600) +Fluc ([4]; clinical isolate 45): 9.17
- Growth (OD600) +Fluc ([4]; clinical isolate 49): 11.31
- MIC90 ([5]; clinical isolate 26, fluconazole alone, read-out: MICFlc (MIC90)): 836 µM
- MIC90 ([5]; clinical isolate 26, with Compound 25, read-out: MICFlc (+cpd) (MIC90)): 105 µM
- MIC90 ([5]; clinical isolate 45, fluconazole alone, read-out: MICFlc (MIC90)): 836 µM
- MIC90 ([5]; clinical isolate 45, with Compound 25, read-out: MICFlc (+cpd) (MIC90)): 105 µM
- MIC90 ([5]; read-out: MIC90 for fluconazole, susceptible strain, Compound 25 present at 300 nM): 0.125 µM
- MIC90 ([5]; strain HLY4123, fluconazole alone, read-out: MICFlc (MIC90)): 0.5 µM
- MIC90 ([5]; strain HLY4123, with Compound 25, read-out: MICFlc (+cpd) (MIC90)): 0.125 µM
- MICFlc ([6]; clinical isolate 15): 16
- MICFlc ([6]; clinical isolate 16): 16
- MICFlc ([6]; clinical isolate 17): 32
- MICFlc ([6]; clinical isolate 21): 32
- MICFlc ([6]; clinical isolate 22): 32
- MICFlc ([6]; clinical isolate 23): 32
- MICFlc ([6]; clinical isolate 25): 32
- MICFlc ([6]; clinical isolate 26): 32
- MICFlc ([6]; clinical isolate 30): 64
- MICFlc ([6]; clinical isolate 33): 64
- MICFlc ([6]; clinical isolate 36): 64
- MICFlc ([6]; clinical isolate 41): 128
- MICFlc ([6]; clinical isolate 45): 128

Structure (SMILES): CN[C@H]1CC[C@@H](c2ccc(Cl)c(Cl)c2)c2ccccc21 [sertraline]
- MIC [7]: ≥ 0.5 µg/mL
